Laboratory results published in paper PMC10041525, “New Dual Inhibitors of Bacterial Topoisomerases with Broad-Spectrum Antibacterial Activity and In Vivo Efficacy against Vancomycin-Intermediate Staphylococcus aureus” (Journal of Medicinal Chemistry, 2023).
Where two headings read alike, the source gives them in different places.

Experiments:
[1] = test system: S. aureus (VISA) ATCC 700699; experiment: MIC broth microdilution (CLSI); assay type: cell-based
Experimental: (§1) MICs (Tables 1 and S1–S3) were determined with a standard serial broth microdilution technique according to Clinical and Laboratory Standards Institute (CLSI) guidelines.[45] Cation-adjusted Mueller Hinton broth 2 (MHBII) was used for bacterial growth under standard laboratory conditions and for antimicrobial susceptibility tests. MHBII broth was prepared by dissolving 22 g of MHBII powder [containing beef extract (3 g), acid hydrolysate of casein (17.5 g), and starch (1.5 g); Becton Dickinson and Co.] in 1 L of water. To prepare MHBII agar, 14 g of agar (Bacto; Molar Chemicals) was added to 1 L of broth.
(§2) Bacterial strains were inoculated onto MHBII agar plates and grown overnight at 37 °C. Next, three individual colonies from each strain were inoculated into 1 mL of MHBII medium and propagated at 37 °C overnight, with agitation at 250 rpm. For Enterococcus sp., the cells were plated in brain–heart infusion [(BHI) medium] agar plates, and BHI broth was used to determine the MICs. […] The highest final DMSO concentration in the experiments was 0.64% (in the case of the 64 μg/mL concentration of the inhibitor). Following the dilutions, each well was seeded with 5 × 10^4 bacterial cells (in 100 μL final volume). Each measurement was performed in three parallel replicates, and to avoid possible edge effects in the microwell plates, the outside rows (A, H) were filled with sterile medium. Following the inoculations, the plates were covered with the lids and wrapped in polyethylene plastic bags, to minimize evaporation but to allow O2 transfer. The plates were incubated at 37 °C under continuous shaking at 150 rpm for 18 h. After incubation, the OD600 of each well was measured using a microplate reader (Synergy 2; Biotek). The MICs were defined as the antibiotic concentrations which inhibited the growth of the bacterial cultures; that is, the drug concentration where the average OD600 increment of the three technical replicates was below 1.5-fold the background OD increment.

[2] = test system: S. aureus (MRSA) ATCC 43300; experiment: MIC broth microdilution (CLSI); assay type: cell-based; conditions: Staphylococcus aureus
Experimental: as §1, §2

[3] = test system: E. coli ATCC 25922; experiment: MIC broth microdilution (CLSI); assay type: cell-based; conditions: Escherichia coli, ATCC25922
Experimental: as §1, §2

[4] = test system: E. faecium ATCC 700221; experiment: MIC broth microdilution (CLSI); assay type: cell-based; conditions: Enterococcus faecium, ATCC700221
Experimental: as §1, §2

[5] = test system: S. aureus ATCC 29213; experiment: MIC broth microdilution (CLSI); assay type: cell-based; conditions: Staphylococcus aureus, ATCC29213
Experimental: as §1, with “Cation-adjusted” for “MICs (Tables 1 and S1–S3) were determined with a standard serial broth microdilution technique according to Clinical and Laboratory Standards Institute (CLSI) guidelines.[45] Cation-adjusted”
(§3) Bacterial strains were inoculated onto MHBII agar plates and grown overnight at 37 °C. Next, three individual colonies from each strain were inoculated into 1 mL of MHBII medium and propagated at 37 °C overnight, with agitation at 250 rpm. For Enterococcus sp., the cells were plated in brain–heart infusion [(BHI) medium] agar plates, and BHI broth was used to determine the MICs. […] Following the dilutions, each well was seeded with 5 × 10^4 bacterial cells (in 100 μL final volume). Each measurement was performed in three parallel replicates, and to avoid possible edge effects in the microwell plates, the outside rows (A, H) were filled with sterile medium. Following the inoculations, the plates were covered with the lids and wrapped in polyethylene plastic bags, to minimize evaporation but to allow O2 transfer. […] After incubation, the OD600 of each well was measured using a microplate reader (Synergy 2; Biotek).

[6] = molecular target: T1, topo IV from E. coli (Escherichia coli, UniProt P20083); experiment: relaxation HTS plate assay; assay type: biochemical
T1 construct: purchased Inspiralis
T1 sequence (P0AFI2 whole entry): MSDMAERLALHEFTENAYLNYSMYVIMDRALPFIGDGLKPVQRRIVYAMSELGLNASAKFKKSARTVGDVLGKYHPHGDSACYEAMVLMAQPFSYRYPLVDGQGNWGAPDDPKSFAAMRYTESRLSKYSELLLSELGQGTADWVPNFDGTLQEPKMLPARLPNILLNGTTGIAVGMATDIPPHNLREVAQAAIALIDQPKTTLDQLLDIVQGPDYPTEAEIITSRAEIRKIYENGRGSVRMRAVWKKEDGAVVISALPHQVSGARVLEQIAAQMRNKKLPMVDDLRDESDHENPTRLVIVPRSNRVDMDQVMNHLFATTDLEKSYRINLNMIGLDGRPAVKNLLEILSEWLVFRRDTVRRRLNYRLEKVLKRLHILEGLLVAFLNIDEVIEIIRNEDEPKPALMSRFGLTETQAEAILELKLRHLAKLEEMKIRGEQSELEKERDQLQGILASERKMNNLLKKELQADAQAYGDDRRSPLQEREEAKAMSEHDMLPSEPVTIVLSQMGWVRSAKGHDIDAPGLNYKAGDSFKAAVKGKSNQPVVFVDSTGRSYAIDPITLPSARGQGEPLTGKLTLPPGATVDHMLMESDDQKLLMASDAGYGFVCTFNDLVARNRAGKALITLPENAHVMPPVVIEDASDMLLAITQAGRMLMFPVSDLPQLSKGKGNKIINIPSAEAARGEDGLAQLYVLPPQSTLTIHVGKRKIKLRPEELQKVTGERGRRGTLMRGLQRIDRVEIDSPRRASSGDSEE
T1 sequence (P20083 whole entry): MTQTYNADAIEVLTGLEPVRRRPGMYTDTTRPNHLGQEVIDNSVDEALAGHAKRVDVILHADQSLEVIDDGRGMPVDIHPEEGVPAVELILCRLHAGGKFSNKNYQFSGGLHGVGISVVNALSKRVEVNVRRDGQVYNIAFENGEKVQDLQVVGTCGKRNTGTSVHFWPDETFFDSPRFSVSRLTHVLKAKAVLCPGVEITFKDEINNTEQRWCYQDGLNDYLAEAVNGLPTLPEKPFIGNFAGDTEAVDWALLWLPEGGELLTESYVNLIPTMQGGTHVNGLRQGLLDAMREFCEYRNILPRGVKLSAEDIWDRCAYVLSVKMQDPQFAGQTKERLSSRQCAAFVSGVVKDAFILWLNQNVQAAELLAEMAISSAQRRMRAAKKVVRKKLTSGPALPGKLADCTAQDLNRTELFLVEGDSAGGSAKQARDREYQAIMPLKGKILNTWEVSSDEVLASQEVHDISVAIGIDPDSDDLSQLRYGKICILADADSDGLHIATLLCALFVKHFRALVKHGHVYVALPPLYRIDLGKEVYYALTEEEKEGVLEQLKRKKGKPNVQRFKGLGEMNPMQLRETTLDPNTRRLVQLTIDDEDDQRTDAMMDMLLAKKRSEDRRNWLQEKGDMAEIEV
Experimental: (§4) All compounds were tested for their inhibitory activities against DNA gyrase and topo IV from E. coli in supercoiling and relaxation high-throughput plate assays, respectively. Our new series of inhibitors were then tested against a panel of Gram-positive and Gram-negative bacteria.
(§5) Seven concentrations of the inhibitors were used to determine IC50 values which were then calculated with GraphPad Prism 6.0 software. Three independent measurements were performed to determine IC50 values, and mean values are reported as the final result.

[7] = test system: K. pneumoniae ATCC 13883; experiment: MIC broth microdilution (CLSI); assay type: cell-based; conditions: Klebsiella pneumoniae, ATCC13883; ATCC 13883 used for 7l, 8b, 14, 16b, 16c
Experimental: as §1, §2
(§6) cMIC, minimum inhibitory concentration
(§7) Bacterial strains that were used: S. aureus ATCC 29213, S. aureus (MRSA) ATCC 43300, S. aureus (VISA) ATCC 700699, E. faecalis ATCC 29212, E. faecium ATCC 700221,
(§8) E. coli ATCC 25922, P. aeruginosa ATCC 27853 (PAO1 for compounds 7l, 8b, 14), A. baumannii ATCC 17978 (ATCC 19606 for compounds 7l, 8b, 14), K. pneumoniae ATCC
(§9) Measurements were performed according to the Clinical and Laboratory Standards Institute guidelines, with three independent measurements.

[8] = test system: P. aeruginosa PAO1; experiment: MIC broth microdilution (CLSI); assay type: cell-based; conditions: Pseudomonas aeruginosa; PAO1 used for 7l, 8b, 14, 16b, 16c
Experimental: as §1, §2, §6, §7, §8, §9

[9] = test system: A. baumannii ATCC 19606; experiment: MIC broth microdilution (CLSI); assay type: cell-based; conditions: Acinetobacter baumannii, ATCC19606
Experimental: as §1, §2, §6, §7, §8, §9

[10] = molecular target: T2, DNA gyrase from E. coli (Escherichia coli, UniProt P0AES6); experiment: supercoiling HTS plate assay; assay type: biochemical; conditions: IC50 [nM] E. coli DNA gyrase
T2 construct: purchased Inspiralis
Experimental: as §4, §5

[11] = test system: Enterococcus faecalis ATCC 29212; experiment: MIC broth microdilution (CLSI); assay type: cell-based, E. faecalis
Experimental: as §1, §2

[12] = test system: A. baumannii ATCC 17978; experiment: MIC broth microdilution (CLSI); assay type: cell-based; conditions: Acinetobacter baumannii, ATCC17978
Experimental: as §1, with “Cation-adjusted” for “MICs (Tables 1 and S1–S3) were determined with a standard serial broth microdilution technique according to Clinical and Laboratory Standards Institute (CLSI) guidelines.[45] Cation-adjusted”
as §3

[13] = test system: Enterobacter cloacae spp. cloacae ATCC 13047; experiment: MIC broth microdilution (CLSI); assay type: cell-based
Experimental: as §1, §2

[14] = test system: P. aeruginosa ATCC 27853; experiment: MIC broth microdilution (CLSI); assay type: cell-based; conditions: Pseudomonas aeruginosa, ATCC27853
Experimental: as §1, §2

[15] = test system: K. pneumoniae ATCC 10031; experiment: MIC broth microdilution (CLSI); assay type: cell-based; conditions: Klebsiella pneumoniae, ATCC10031
Experimental: as §1, §2

[16] = in vitro; assay type: in vitro ADME, mouse; conditions: male, CD-1, mouse; for fraction unbound at 4 h, 5 μM: plasma (pooled)
Experimental: The PPB studies were performed by Selvita d.o.o. (Zagreb, Croatia) in mouse plasma (CD-1 male, pooled, commercially obtained from BioIVT) via equilibrium dialysis. Compounds were assayed at 5 μM (0.5% DMSO) in two replicates, and incubation time was 4 h at 37 °C. Samples were taken at 0 min and 4 h. Aliquots from both buffer and plasma compartment matrix were matched and mixed with 6 volumes of STOP solution (acetonitrile/methanol (2:1) + internal standard – diclofenac) and analyzed by LC–MS/MS. Assay controls were caffeine (low), verapamil (moderate binding), and nicardipine (very high binding), and protein contamination was checked.

[17] = mitochondrial toxicity glu/gal assay; assay type: cell-based; conditions: human, 0.1 µM, read-out: cell viability (ATP), % of control
Experimental: HepG2 cells were seeded in two 96-well plates at a density of 50,000 cells per well in 100 μL of growth medium. For the first plate, the growth medium contained glucose and for the second plate, it contained galactose. Cells were incubated overnight in a 5% CO2 atmosphere at 37 °C and allowed to attach onto the wells. […] The medium contained positive control (Rotenone). […] Luminescence was measured with Tecan Infinite 200 pro luminometer, and the values from each well treated with compound were compared to the values given by the negative control (medium only). The inhibition of mitochondrial function was determined by comparing ATP levels in galactose and glucose exposed cells. […]

[18] = read-out: MIC [µg/mL](S. aureus ATCC 29213)
[19] = ATCC 19606 used for 7l, 8b, 14, 16b, 16c, read-out: MIC
[20] = read-out: MIC [µg/mL] (A. baumannii ATCC 19606 for compounds 7l, 8b, 14)

| SMILES | MIC ([3]; read-out: MIC) | MIC ([5]; read-out: MIC) | MIC [5, 18] | IC50 ([6]; IC50 [nM] E. coli TopoIV) | MIC [7] | MIC [8] | MIC [9, 19] | MIC [9, 20] | IC50 [10] | other results |
| --- | --- | --- | --- | --- | --- | --- | --- | --- | --- | --- |
| Cc1[nH]c(C(=O)Nc2nc3c(N4CC[C@H](N(C)C)C4)cc(C(=O)O)cc3s2)c(Cl)c1Cl.Cl.N [7l, (S)-2-(3,4-Dichloro-5-methyl-1H-pyrrole-2-carboxamido)-4-(3-(dimethylamino)pyrrolidin-1-yl)benzo[d]thiazole-6-carboxylic Acid] | > 64 µg/mL | 4 µg/mL | 4 µg/mL | 210 ± 80 nM | > 64 µg/mL | > 64 µg/mL | > 64 µg/mL | > 64 µg/mL | < 10 nM | MIC ([1]; Staphylococcus aureus, read-out: MIC): 0.5 µg/mL; MIC ([2]; read-out: MIC): 2 µg/mL; MIC ([2]; read-out: MIC [µg/mL](S. aureus MRSA ATCC4330)): 2 µg/mL; MIC ([4]; read-out: MIC): 0.25 µg/mL; MIC ([11]; Enterococcus faecalis, ATCC29212, read-out: MIC): 1 µg/mL |
| Cc1[nH]c(C(=O)Nc2nc3c(N4CCNCC4)cc(C(=O)O)cc3s2)c(Cl)c1Cl.Cl [8b, 4-(6-Carboxy-2-(3,4-dichloro-5-methyl-1H-pyrrole-2-carboxamido)benzo[d]thiazol-4-yl)piperazin-1-ium Chloride] | 16 µg/mL | 32 µg/mL | 32 µg/mL | 120 ± 15 nM | 64 µg/mL | > 64 µg/mL | 64 µg/mL | 64 µg/mL | < 10 nM | – |
| Cc1[nH]c(C(=O)Nc2nc3c(N4CCOCC4)cc(C(=O)O)cc3s2)cc1C#N [16c, 2-(4-Cyano-5-methyl-1H-pyrrole-2-carboxamido)-4-morpholinobenzo[d]thiazole-6-carboxylic Acid] | > 64 µg/mL | > 64 µg/mL | > 64 µg/mL | – | > 64 µg/mL | > 64 µg/mL | > 64 µg/mL | – | 32 ± 9 nM | MIC ([12]; read-out: MIC [µg/mL] (A. baumannii ATCC 17978)): > 64 µg/mL; IC50 ([6]; read-out: IC50): 440 nM |
| Cc1[nH]c(C(=O)Nc2nc3c(OCc4ccccc4)cc(C(=O)O)cc3s2)c(Cl)c1Cl [E] | – | – | – | – | – | – | – | – | – | MIC [13]: >64 µg/mL; MIC ([13]; Enterobacter cloacae, ATCC13047): > 64 µg/mL; MIC [1]: <0.03125 µg/mL; MIC ([1]; Staphylococcus aureus): < 0.0312 µg/mL; MIC [2]: 0.0625 µg/mL; MIC [3]: 16 µg/mL; MIC [14]: 2 µg/mL; MIC [4]: 0.0625 µg/mL; MIC [15]: 4 µg/mL; fraction unbound at 4 h, 5 μM ([16]; mouse plasma, 5 µM, 4 h, read-out: fu, fraction unbound): < 0.001; fraction unbound at 4 h, 5 μM ([16]; read-out: plasma protein binding (PPB)): < 0.01; recovery at 4 h, 5 μM ([16]; plasma protein binding assay): 94.1%; MIC [12]: 2 µg/mL; MIC [5]: 0.5 µg/mL; MIC [11]: <0.03125 µg/mL; MIC ([11]; Enterococcus faecalis, ATCC29212): < 0.0312 µg/mL |
| C=C(C)[C@H]1Cc2c(ccc3c2O[C@@H]2COc4cc(OC)c(OC)cc4[C@@H]2C3=O)O1 [Rot, Rotenone] | – | – | – | – | – | – | – | – | – | viability at 24 h, 0.1 µM ([17]; galactose): 1%; viability at 24 h, 0.1 µM ([17]; glucose): 64% |
| Cc1[nH]c(C(=O)Nc2nc3c(CN4CCOCC4)cc(C(=O)O)cc3s2)c(Cl)c1Cl.Cl [compound 14, 4-((6-Carboxy-2-(3,4-dichloro-5-methyl-1H-pyrrole-2-carboxamido)benzo[d]thiazol-4-yl)methyl)morpholin-4-ium Chloride] | > 64 µg/mL | 16 µg/mL | 16 µg/mL | 460 ± 120 nM | 64 µg/mL | > 64 µg/mL | > 64 µg/mL | > 64 µg/mL | 13 ± 5 nM | – |
